Assay results from ChEMBL document CHEMBL3351732, “Potent bisimidazole-based HCV NS5A inhibitors bearing annulated tricyclic motifs” (Bioorg Med Chem Lett, 2014).

What was measured:
Type in all cases: functional, cell-based, Hepacivirus hominis
Hepatitis C virus [1] = assay: Antiviral activity against HCV genotype 1b infected in human HuH7 cells by luciferase reporter gene assay; conditions: Huh-7
Hepatitis C virus [2] = assay: Antiviral activity against HCV genotype 1a infected in human HuH7 cells by luciferase reporter gene assay; conditions: subtype 1a, Huh-7
Hepatitis C virus [3] = assay: Antiviral activity against HCV genotype 3a infected in human HuH7 cells by luciferase reporter gene assay; conditions: Huh-7

Row | Structure (SMILES) | EC50 (Hepatitis C virus [1]) [nM] | EC50 (Hepatitis C virus [2]) [nM] | EC50 (Hepatitis C virus [3]) [nM]
1 | COC(=O)N[C@H](C(=O)N1CCC[C@H]1c1ncc(-c2ccc3c(c2)S(=O)(=O)c2cc(-c4cnc([C@@H]5CCCN5C(=O)[C@@H](NC(=O)OC)C(C)C)[nH]4)ccc2-3)[nH]1)C(C)C | 0.13 | 2 | –
2 | COC(=O)N[C@H](C(=O)N1CCC[C@H]1c1ncc(-c2ccc3c(c2)C(C)(C)c2cc(-c4cnc([C@@H]5CCCN5C(=O)[C@@H](NC(=O)OC)C(C)C)[nH]4)ccc2-3)[nH]1)C(C)C | 0.037 | 1.14 | –
3 | COC(=O)N[C@H](C(=O)N1CCC[C@H]1c1ncc(-c2ccc3c(c2)oc2ccc(-c4cnc([C@@H]5CCCN5C(=O)[C@@H](NC(=O)OC)C(C)C)[nH]4)cc23)[nH]1)C(C)C | 0.033 | 1.8 | –
4 | COC(=O)N[C@H](C(=O)N1CCC[C@H]1c1ncc(-c2ccc3c(c2)CCc2ccc(-c4cnc([C@@H]5CCCN5C(=O)[C@@H](NC(=O)OC)C(C)C)[nH]4)cc2O3)[nH]1)C(C)C | 0.055 | 7.4 | –
5 | COC(=O)N[C@H](C(=O)N1CCC[C@H]1c1ncc(-c2ccc3c(c2)CCc2cc(-c4cnc([C@@H]5CCCN5C(=O)[C@@H](NC(=O)OC)C(C)C)[nH]4)ccc2O3)[nH]1)C(C)C | 0.069 | 4.8 | –
6 | COC(=O)N[C@H](C(=O)N1CCC[C@H]1c1ncc(-c2ccc3c(c2)Oc2ccc(-c4cnc([C@@H]5CCCN5C(=O)[C@@H](NC(=O)OC)C(C)C)[nH]4)cc2C32CC2)[nH]1)C(C)C | 0.02 | 0.065 | –
7 | COC(=O)N[C@H](C(=O)N1CCC[C@H]1c1ncc(-c2ccc3c(c2)Cc2cc(-c4cnc([C@@H]5CCCN5C(=O)[C@@H](NC(=O)OC)C(C)C)[nH]4)ccc2O3)[nH]1)C(C)C | > 3.7 | > 100 | –
8 | COC(=O)N[C@H](C(=O)N1CCC[C@H]1c1ncc(-c2ccc3oc4cc(-c5cnc([C@@H]6CCCN6C(=O)[C@@H](NC(=O)OC)C(C)C)[nH]5)c(Cl)cc4c(=O)c3c2)[nH]1)C(C)C | 0.029 | 2.5 | –
9 | COC(=O)N[C@H](C(=O)N1CCC[C@H]1c1ncc(-c2ccc3nc4cc(-c5cnc([C@@H]6CCCN6C(=O)[C@@H](NC(=O)OC)C(C)C)[nH]5)ccc4nc3c2)[nH]1)C(C)C | 0.037 | 0.088 | –
10 | COC(=O)N[C@H](C(=O)N1CCC[C@H]1c1ncc(-c2ccc3c(c2)Cc2cc(-c4cnc([C@@H]5CCCN5C(=O)[C@@H](NC(=O)OC)C(C)C)[nH]4)ccc2-3)[nH]1)C(C)C | 0.042 | 0.25 | 3.8
11 | COC(=O)N[C@H](C(=O)N1CCC[C@H]1c1ncc(-c2ccc3c(c2)oc2cc(-c4cnc([C@@H]5CCCN5C(=O)[C@@H](NC(=O)OC)C(C)C)[nH]4)ccc23)[nH]1)C(C)C | 0.041 | 0.4 | 1.3
12 | COC(=O)N[C@H](C(=O)N1CCC[C@H]1c1ncc(-c2ccc3c(c2)[nH]c2cc(-c4cnc([C@@H]5CCCN5C(=O)[C@@H](NC(=O)OC)C(C)C)[nH]4)ccc23)[nH]1)C(C)C | 0.18 | 16.5 | –
